This is an account of results in patent US6992095B2, “Stilbene compounds comprising an adamantyl group, compositions and methods thereof” (Galderma Research & Development, S.N.C., priority 1996, dated 2006).

Structures are written as SMILES. Like-named read-outs stand apart in the source and are kept apart here.

The test system of this assay is mouse embryonic teratocarcinoma F9 cells. Briefly: mouse embryonic teratocarcinoma F9 cell differentiation test (antagonist activity). Type of assay: cell-based. The following applies: inhibition by 50% of agonist effect on secretion of plasminogen activator, CD 2043 at 10 nM, incubation for three days, read-out: Antagonist against CD 2043 (10 nM) F9 differentiation test IC50. An excerpt:
The compounds according to the invention show activity in the test of differentiation of mouse embryonic teratocarcinoma cells (F9) (Cancer Research, 43, 5268 (1983)) and/or in the test of inhibition of ornithine decarboxylase after induction with TPA in mice (Cancer Research, 38, 793–801 (1978)). These tests show the activities of these compounds in the fields of cell differentiation and cell proliferation, respectively. In the test of cell (F9) differentiation, […] to retinoic acid receptors. […] Some of these compounds are thus also active in a test which is used to identify molecules which are RAR antagonists, as described in French patent application No. 95/07302 filed on 19 Jun. 1995 by the same Assignee as the present invention, which is incorporated by reference in its entirety herein. […] Thus, the response to a topical application, to the ear of a mammal, of an RAR-agonist molecule, which corresponds to an increase in the thickness of this ear, may be inhibited by the systemic or topical administration of an RAR-antagonist molecule. In addition, some of these compounds may provide synergism to the biological activity of products binding to the nuclear receptors.
The antagonist activity of the compounds of formula (I) was evaluated in the mouse embryonic teratocarcinoma F9 cell differentiation test, (Cancer Research, 43, 5268 (1983)).
The F9 cells were inoculated in 12-well clusters, the compounds were tested at from 10^−9 to 10^−5 M in the presence of all-trans-retinoic acid or of a synthetic agonist retinoid, 4-(5,6,7,8-tetrahydro-5,5,8,8-tetramethyl-2-naphthylaminomethyl)benzoic acid (CD 2043), at 10^−8 M. After incubation for three days, the morphological observations were carried out and the concentration of the test compound which inhibits the agonist effect on the secretion of the plasminogen activator by 50% (IC50) was determined.

With `COCCOCOc1ccc(/C(C)=C/c2ccc(C(=O)O)cc2)cc1C12CC3CC(CC(C3)C1)C2` [Example 4, 4-[(E)-2-(3-(1-Adamantyl)-4-methoxyethoxymethoxy-phenyl)-1-propenyl]benzoic acid], under “Mus musculus, F9, 72 h”, the IC50 was determined as 9 nM.
As for `COCCOCOc1ccc(/C(C)=C\c2ccc(C(=O)O)cc2)cc1C12CC3CC(CC(C3)C1)C2` [Example 5, 4-[(Z)-2-(3-(1-Adamantyl)-4-methoxyethoxymethoxy-phenyl)-1-prorenyl]benzoic acid], the half-inhibitory concentration (IC50) was found to be 630 nM.
On to `COCCOCOc1ccc(/C=C/c2ccc(C(=O)O)cc2)cc1C12CC3CC(CC(C3)C1)C2` [Example 2, 4-[(E)-2-(3-(1-Adamantyl)-4-methoxyethoxymethoxy-phenyl)ethenyl]benzoic acid], for which the half-inhibitory concentration (IC50) (Mus musculus, F9, 72 h) came out at 310 nM.
As to `COCCOCOc1ccc(/C(C)=C/c2ccc(C(=O)O)nc2)cc1C12CC3CC(CC(C3)C1)C2` [Example 7, 5-{2-[3-Adamant-1-yl-4-(2-methoxyethoxymethoxy)-phenyl]proxpen-(E)-yl}pyridine-2-carboxylic acid], the IC50 turned out to be 600 nM.
As for `COCCOCOc1ccc(/C(C)=C/c2ccc(C(=O)O)cn2)cc1C12CC3CC(CC(C3)C1)C2` [Example 10, 6-{2-[3-Adamant-1-yl-4-(2-methoxyethoxymethoxy)-phenyl]proven-(E)-yl}nicotinic acid], the IC50 came out at 35 nM.
